Converted amounts (≈) assume the structure as drawn. Where a SMILES comes first, the peptide text is derived from it. Bridges are numbered along the chain shown (N, C = ends). Roman numbers before positions name the chains, in order. [ ]: non-standard residue; d: D form. Thr(ol) = C[C@@H](O)[C@H](N)CO; Tle = CC(C)(C)[C@H](N)C(=O)O; Hiv = CC(C)[C@H](O)C(=O)O; dDab = NCC[C@@H](N)C(=O)O; hSer = N[C@@H](CCO)C(=O)O; Dab = NCC[C@H](N)C(=O)O; Dap = NC[C@H](N)C(=O)O; Mpa = O=C(O)CCS
What was measured:
Type in all cases: cell-based
[1] = test system: Acinetobacter baumannii 872842; settings: 872842
In short: (§1)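 Standard CLSI microdilution testing: bacterial suspensions standardized against 0.5 McFarland to about 10^6 CFU/mL in MH-II broth meet serially halved peptide concentrations in broth containing 0.002% polysorbate 80; incubation lasts 18-20 h at 35° C before the MIC is scored.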

[2] = test system: Acinetobacter baumannii DSM 30008; settings: DSM 30008
In short: as §1

[3] = test system: Enterobacter cloacae 848840; settings: 848840
In short: as §1

[4] = test system: Escherichia coli 926415; settings: 926415
In short: as §1

[5] = test system: Escherichia coli ATCC 25922; settings: ATCC 25922
In short: as §1

[6] = test system: Klebsiella pneumoniae 968733; settings: 968733
In short: as §1

[7] = test system: Klebsiella pneumoniae SSI #3010; settings: SSI #3010
In short: as §1

[8] = test system: Pseudomonas aeruginosa ATCC 27853; settings: ATCC 27853
In short: as §1

[9] = test system: human red blood cells (hRBC); experiment: Hemolysis; settings: red cells of human, 1 h, 200
In short: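 Read-out is supernatant absorbance at 540 nm, normalised to full lysis by 2% Triton X-100 and zero lysis by PBS with 10% water. Peptides (200 μg/mL) were exposed to 20% v/v washed human erythrocytes at 37° C for 1 h under shaking.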

Structure (SMILES) | MIC [1] [mg/L] | MIC [2] [mg/L] | MIC [3] [mg/L] | MIC [4] [mg/L] | MIC [5] [mg/L] | MIC [6] [mg/L] | MIC [7] [mg/L] | MIC [8] [mg/L] | Acinetobacter baumannii DSM 30008 MIC [2] [mg/L] | Escherichia coli ATCC 25922 MIC [5] [mg/L] | Klebsiella pneumoniae SSI #3010 MIC [7] [mg/L] | Pseudomonas aeruginosa ATCC 27853 MIC [8] [mg/L] | Hemolysis at 200 μg/mL [9] [%]
CC(C)C[C@@H]1NC(=O)[C@@H](CC(C)C)NC(=O)[C@H](CCN)NC(=O)[C@@H](NC(=O)[C@H](CCN)NC(=O)[C@@H](NC(=O)[C@H](CCN)NC(=O)CC[C@@H]2NC(=O)[C@H](CCN)NC(=O)[C@H](Cc3ccc(O)cc3)NC(=O)[C@@H](NC(=O)[C@@H](N)C(C)C)CSSC[C@@H](C(=O)N[C@@H](CO)C(=O)O)NC(=O)[C@H](C(C)(C)C)NC(=O)[C@H](CO)NC(=O)[C@H](Cc3c[nH]c4ccccc34)NC(=O)[C@H]([C@@H](C)O)NC(=O)[C@@H](CCN)NC2=O)[C@@H](C)O)CCNC(=O)[C@H]([C@@H](C)O)NC(=O)[C@H](CCN)NC(=O)[C@H](CCN)NC1=O [Ex. 53] (I: H-VCY[Dab]E[dDab]TWS[Tle]CS-OH / II: [Dab]T[Dab][Dab][Dab][dL]L[Dab][Dab]T; disulfide I:2-I:11; amide I:5-II:N; lactam II:4-II:C) | 0.5 (≈ 0.208 µM) | 0.25 (≈ 0.104 µM) | 8 (≈ 3.33 µM) | 0.5 (≈ 0.208 µM) | 0.125 (≈ 0.0521 µM) | 4 (≈ 1.67 µM) | 0.125 (≈ 0.0521 µM) | 0.125 (≈ 0.0521 µM) |  |  |  |  | <1
CC[C@H](C)[C@@H]1NC(=O)[C@H](CO)NC(=O)[C@H](Cc2c[nH]c3ccccc23)NC(=O)[C@H](CO)NC(=O)[C@@H](CCN)NC(=O)[C@H](CCC(=O)N[C@@H](CCN)C(=O)N[C@H](C(=O)N[C@@H](CN)C(=O)N[C@H]2CCNC(=O)[C@H]([C@@H](C)O)NC(=O)[C@H](CCN)NC(=O)[C@H](CCN)NC(=O)[C@H](CC(C)C)NC(=O)[C@@H](CC(C)C)NC(=O)[C@H](CCN)NC2=O)[C@@H](C)O)NC(=O)[C@H](CCN)NC(=O)[C@H](Cc2ccc(O)cc2)NC(=O)[C@@H](NC(=O)[C@@H](NC(C)=O)C(C)C)CSSC[C@@H](C(=O)N[C@@H](CO)C(N)=O)NC1=O [Ex. 315] (I: Ac-VCY[Dab]E[dDab]SWSICS-NH2 / II: [Dab]T[Dap][Dab][Dab][dL]L[Dab][Dab]T; disulfide I:2-I:11; amide I:5-II:N; lactam II:4-II:C) | 0.0625 (≈ 0.0259 µM) |  | 0.125 (≈ 0.0518 µM) | 0.0625 (≈ 0.0259 µM) |  | 0.0625 (≈ 0.0259 µM) |  |  | 0.01562 | 0.01562 | 0.0625 | 0.0625 | 2
CC(=O)N[C@@H](CO)C(=O)N[C@H]1CSSC[C@@H](C(=O)N[C@H](C(N)=O)C(C)C)NC(=O)[C@H](C(C)C)NC(=O)[C@H](CO)NC(=O)[C@H](Cc2c[nH]c3ccccc23)NC(=O)[C@H](CCO)NC(=O)[C@@H](CCN)NC(=O)[C@H](CCC(=O)N[C@@H](CCN)C(=O)N[C@H](C(=O)N[C@@H](CCN)C(=O)N[C@H]2CCNC(=O)[C@H]([C@@H](C)O)NC(=O)[C@H](CCN)NC(=O)[C@H](CCN)NC(=O)[C@H](CC(C)C)NC(=O)[C@@H](CC(C)C)NC(=O)[C@H](CCN)NC2=O)[C@@H](C)O)NC(=O)[C@H](CCN)NC(=O)[C@H](Cc2ccc(O)cc2)NC1=O [Ex. 62] (I: Ac-SCY[Dab]E[dDab][hSer]WSVCV-NH2 / II: [Dab]T[Dab][Dab][Dab][dL]L[Dab][Dab]T; disulfide I:2-I:11; amide I:5-II:N; lactam II:4-II:C) | 0.125 (≈ 0.0515 µM) | 0.0625 (≈ 0.0258 µM) | 4 (≈ 1.65 µM) | 0.25 (≈ 0.103 µM) | 0.125 (≈ 0.0515 µM) | 0.125 (≈ 0.0515 µM) | 0.0625 (≈ 0.0258 µM) | 0.125 (≈ 0.0515 µM) |  |  |  |  | <1
CC(C)C[C@@H]1NC(=O)[C@@H](CC(C)C)NC(=O)[C@H](CCN)NC(=O)[C@@H](NC(=O)[C@H](CCN)NC(=O)[C@H](CO)NC(=O)[C@H](CCN)NC(=O)CC[C@@H]2NC(=O)[C@H](CN)NC(=O)[C@H](Cc3ccc(O)cc3)NC(=O)[C@@H](NC(=O)[C@@H](O)C(C)C)CSSC[C@@H](C(=O)N[C@H](CO)[C@@H](C)O)NC(=O)[C@H](C(C)(C)C)NC(=O)[C@H](CO)NC(=O)[C@H](Cc3c[nH]c4ccccc34)NC(=O)[C@H]([C@@H](C)O)NC(=O)[C@@H](CCN)NC2=O)CCNC(=O)[C@H]([C@@H](C)O)NC(=O)[C@H](CCN)NC(=O)[C@H](CCN)NC1=O [Ex. 106] (I: H-[Hiv]CY[Dap]E[dDab]TWS[Tle]C[Thr(ol)] / II: [Dab]S[Dab][Dab][Dab][dL]L[Dab][Dab]T; disulfide I:2-I:11; amide I:5-II:N; lactam II:4-II:C) | 0.25 (≈ 0.105 µM) | 0.0625 (≈ 0.0263 µM) | 0.25 (≈ 0.105 µM) | 0.125 (≈ 0.0527 µM) | 0.0625 (≈ 0.0263 µM) | 0.25 (≈ 0.105 µM) | 0.125 (≈ 0.0527 µM) | 0.125 (≈ 0.0527 µM) |  |  |  |  | <1

Further lines, with some results ahead:

MIC [1] [mg/L] | MIC [2] [mg/L] | MIC [3] [mg/L] | MIC [4] [mg/L] | MIC [5] [mg/L] | MIC [6] [mg/L] | MIC [7] [mg/L] | MIC [8] [mg/L] | Acinetobacter baumannii DSM 30008 MIC [2] [mg/L] | Escherichia coli ATCC 25922 MIC [5] [mg/L] | Klebsiella pneumoniae SSI #3010 MIC [7] [mg/L] | Pseudomonas aeruginosa ATCC 27853 MIC [8] [mg/L] | Structure (SMILES) | Hemolysis at 200 μg/mL [9] [%]
0.0625 (≈ 0.0264 µM) | 0.03125 (≈ 0.0132 µM) | 0.125 (≈ 0.0527 µM) | 0.0625 (≈ 0.0264 µM) | 0.125 (≈ 0.0527 µM) | 0.125 (≈ 0.0527 µM) | 0.125 (≈ 0.0527 µM) | 0.25 (≈ 0.105 µM) |  |  |  |  | CC(C)C[C@@H]1NC(=O)[C@@H](CC(C)C)NC(=O)[C@H](CCN)NC(=O)[C@@H](NC(=O)[C@H](CN)NC(=O)[C@@H](NC(=O)[C@H](CCN)NC(=O)CC[C@@H]2NC(=O)[C@H](CN)NC(=O)[C@H](Cc3ccc(O)cc3)NC(=O)[C@@H](NC(=O)[C@@H](O)C(C)C)CSSC[C@@H](C(=O)N[C@H](CO)[C@@H](C)O)NC(=O)[C@H](C(C)(C)C)NC(=O)[C@H](CO)NC(=O)[C@H](Cc3c[nH]c4ccccc34)NC(=O)[C@H](CCN)NC(=O)[C@@H](CCN)NC2=O)[C@@H](C)O)CCNC(=O)[C@H]([C@@H](C)O)NC(=O)[C@H](CCN)NC(=O)[C@H](CCN)NC1=O [Ex. 111] (I: H-[Hiv]CY[Dap]E[dDab][Dab]WS[Tle]C[Thr(ol)] / II: [Dab]T[Dap][Dab][Dab][dL]L[Dab][Dab]T; disulfide I:2-I:11; amide I:5-II:N; lactam II:4-II:C) | <1
0.03125 (≈ 0.0121 µM) | 0.03125 (≈ 0.0121 µM) | 0.0625 (≈ 0.0242 µM) | 0.0625 (≈ 0.0242 µM) | 0.03125 (≈ 0.0121 µM) | 0.125 (≈ 0.0484 µM) | 0.0625 (≈ 0.0242 µM) | 0.125 (≈ 0.0484 µM) |  |  |  |  | CC(C)C[C@@H]1NC(=O)[C@@H](CC(C)C)NC(=O)[C@H](CCN)NC(=O)[C@@H](NC(=O)[C@H](CN)NC(=O)[C@@H](NC(=O)[C@H](CCN)NC(=O)CC[C@@H]2NC(=O)[C@H](CO)NC(=O)[C@H](Cc3ccc(O)cc3)NC(=O)[C@H]([C@@H](C)O)NC(=O)[C@H](C(C)C)NC(=O)CCSSC[C@@H](C(N)=O)NC(=O)[C@H]([C@@H](C)O)NC(=O)[C@H](C)NC(=O)[C@H](C(C)(C)C)NC(=O)[C@H](CCC(=O)O)NC(=O)[C@H](Cc3c[nH]c4ccccc34)NC(=O)[C@H](CCN)NC(=O)[C@@H](CCN)NC2=O)[C@@H](C)O)CCNC(=O)[C@H]([C@@H](C)O)NC(=O)[C@H](CCN)NC(=O)[C@H](CCN)NC1=O [Ex. 250] (I: [Mpa]VTYSE[dDab][Dab]WE[Tle]ATC-NH2 / II: [Dab]T[Dap][Dab][Dab][dL]L[Dab][Dab]T; disulfide I:1-I:14; amide I:6-II:N; lactam II:4-II:C) | 1
